According to patent US9687494B2, “Iminothiadiazine dioxide compounds as BACE inhibitors, compositions, and their use” (Merck Sharp & Dohme Corp., priority 2009, dated 2017):

Tests used:
[1] = Solution stability, Example A (pH 7.4 phosphate buffer/MeOH, LC/MS); format: physicochemical
Description: The following comparative procedures were used.
A 1.05 mg/mL stock solution (5 mL) of Ex. 45 in MeOH was prepared. From the stock solution was taken out 1.25 mL and diluted to 25 mL with the addition of 23.75 mL of 10 mM phosphate buffer (pH 7.4)/MeOH (70/30 v/v). This new solution was split into three. One solution was incubated at 4° C., another incubated at 25° C. and the third incubated at 40° C. Each solution was analyzed by LC/MS after day 1, day 2 and day 6 and compared to a standard calibration curve for Ex. 45.
In the following study, the solution stability of the compound of Example 45 was measured and compared to that of Compound Z. The compound of Example 45 is an iminothiadiazine dioxide compound of the invention. Compound Z is the corresponding iminopyrimidinone compound. The structures of the compound of Example 45 and of Compound Z are shown below. Studies were performed in aqueous pH 7.4 buffer containing methanol at 4° C., 25° C. and 40° C.

[2] = Solution stability, Example B (50 mM pH 7.4 phosphate buffer, 25° C., LC/MS); format: physicochemical
Description: Stock solutions of the tested compounds were prepared by dissolving about 3 mg of each compound in 3 mL of acetonitrile. Standards for test compounds were prepared by diluting 1 mL of the stock solution with an additional 4 mL of acetonitrile. These standards were stored at 4° C. Samples were prepared by diluting 1 mL of the stock solution with 4 mL of 50 mM pH 7.4 phosphate buffer. These samples were stored at 25° C. in the absence of light. Standards and samples were analyzed by LC/MS initially and at day 1, day 4, and day 6.
Mobile phase A: 10 mM pH 5 ammonium acetate buffer:methanol (90:10)
Mobile phase B: 10 mM pH 5 ammonium acetate buffer:methanol (10:90)
Column: Zorbax SB-Phenyl 4.6×50 mm, 1.8 μm
Column temperature: 40° C.
Detectors: UV at 220 nm and 236 nm
MS, ES ionization, positive mode, for identification only at final time point.
The terms reported in the tables below have the following meanings:
Area % is the integration of peak from HPLC as reported by Waters Empower II software.
RRT is the relative retention time of new product compared to the standard of the test compound.
ND stands for no peak detected by the UV detector.
* stands for no ion detected by the mass spectrometer.
In the following study, the solution stability of the compound of Example 47 was measured and compared to that of Compound Y. The compound of Example 47 is an iminothiadiazine dioxide compound of the invention. Compound Y is the corresponding iminopyrimidinone compound. The structures of the compound of Example 47 and of Compound Y are shown below. Studies were performed in pH 7.4 buffer at 25° C.

[3] = Standard (acetonitrile, stored at 4° C.)

## CN1C(=N)N[C@](C)(c2cc(-c3cccc(C#N)c3)cs2)CC1=O [Compound Z]
[1]; pH 7.4, 4° C., 2 days
  Assay (Area %), class symbol: — ((—) stands for >20% degradation)
[1]; pH 7.4, 4° C., 6 days
  Assay (Area %), class symbol: — ((—) stands for >20% degradation)
[1]; pH 7.4, 4° C., time not given
  Assay (Area %), class symbol: — ((—) stands for >20% degradation)
[1]; pH 7.4, 25° C., 2 days
  Assay (Area %), class symbol: — ((—) stands for >20% degradation)
[1]; pH 7.4, 25° C., 6 days
  Assay (Area %), class symbol: — ((—) stands for >20% degradation)
[1]; pH 7.4, 25° C., time not given
  Assay (Area %), class symbol: — ((—) stands for >20% degradation)
[1]; pH 7.4, 40° C., 2 days
  Assay (Area %), class symbol: — ((—) stands for >20% degradation)
[1]; pH 7.4, 40° C., 6 days
  Assay (Area %), class symbol: — ((—) stands for >20% degradation)
[1]; pH 7.4, 40° C., time not given
  Assay (Area %), class symbol: — ((—) stands for >20% degradation)

## CN1C(=N)N[C@](C)(c2cc(-c3cccc(C#N)c3)cs2)CS1(=O)=O [Example 45]
[1]; pH 7.4, 40° C., time not given
  Assay (Area %), class symbol: — ((—) stands for >20% degradation)

## CC#Cc1cncc(-c2csc([C@]3(C)CS(=O)(=O)N(C)C(=N)N3)c2)c1 [Example 47]
[2]; Sample at pH 7.4, 25° C.
  Area %, Day 1; compound peak (RRT 1.00): 98.56 Area %
  Area %, Day 4; compound peak (RRT 1.00): 98.53 Area %
  Area %, Day 6; compound peak (RRT 1.00): 98.53 Area %
  Area %, Initial; compound peak (RRT 1.00): 98.55 Area %
[2]; [3]
  Area %, Day 1; compound peak (RRT 1.00): 98.55 Area %
  Area %, Day 4; compound peak (RRT 1.00): 98.52 Area %
  Area %, Day 6; compound peak (RRT 1.00): 98.52 Area %
  Area %, Initial; compound peak (RRT 1.00): 98.53 Area %
